Assays:
Assay in all cases: relative viability (nuclei count vs DMSO), 5 days (fraction); higher = more cells survive
[1] = compound: C1=CC=C(C(=C1)C2=CC=C(C=C2)C3=CSC4=C3C(=C(C(=O)N4)C#N)O)O + COc1cccc2cc(-c3nc([C@H]4CC[C@H](C(=O)O)CC4)n4ncnc(N)c34)[nH]c12 [OSI-027] (partner 0.5 µM)
How it was run: (§1)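 Lung cancer cell lines, seeded in 1536-well plates, were treated the following day by pin tool with a single drug or with five library-drug doses (not always all listed) in √10 steps on top of a fixed anchor-drug dose. Cells were fixed and nuclei stained in one step after 5 days, and nuclei were counted. Relative viability is the nuclei count for treated wells divided by that for vehicle wells, reported as medians of duplicate plates.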

[2] = compound: C1=CC=C(C(=C1)C2=CC=C(C=C2)C3=CSC4=C3C(=C(C(=O)N4)C#N)O)O + Nc1ncn([C@H]2C[C@H](O)[C@@H](CO)O2)c(=O)n1 [Decitabine] (partner 2 µM)
How it was run: as §1

TGX 221 + Navitoclax = compound: CC1=CN2C(=O)C=C(N=C2C(=C1)C(C)NC3=CC=CC=C3)N4CCOCC4 [TGX 221] + CC1(C)CCC(c2ccc(Cl)cc2)=C(CN2CCN(c3ccc(C(=O)NS(=O)(=O)c4ccc(N[C@H](CCN5CCOCC5)CSc5ccccc5)c(S(=O)(=O)C(F)(F)F)c4)cc3)CC2)C1 [Navitoclax] (partner 0.5 µM)
How it was run: as §1

TGX 221 + AZD7762 = compound: CC1=CN2C(=O)C=C(N=C2C(=C1)C(C)NC3=CC=CC=C3)N4CCOCC4 [TGX 221] + NC(=O)Nc1cc(-c2cccc(F)c2)sc1C(=O)N[C@H]1CCCNC1 [AZD7762] (partner 0.2 µM)
How it was run: as §1

Cell Line | relative viability ([1]; first compound 0.08 µM) | relative viability ([1]; first compound 0.253 µM) | relative viability ([1]; first compound 0.8 µM) | relative viability ([1]; first compound 2.53 µM) | relative viability ([1]; first compound 8 µM) | relative viability ([2]; first compound 0.08 µM) | relative viability ([2]; first compound 0.253 µM) | relative viability ([2]; first compound 0.8 µM) | relative viability ([2]; first compound 2.53 µM) | relative viability ([2]; first compound 8 µM) | relative viability (TGX 221 + Navitoclax; first compound 0.08 µM) | relative viability (TGX 221 + Navitoclax; first compound 0.253 µM) | relative viability (TGX 221 + Navitoclax; first compound 0.8 µM) | relative viability (TGX 221 + Navitoclax; first compound 2.53 µM) | relative viability (TGX 221 + Navitoclax; first compound 8 µM) | relative viability (TGX 221 + AZD7762; first compound 0.08 µM) | relative viability (TGX 221 + AZD7762; first compound 0.253 µM) | relative viability (TGX 221 + AZD7762; first compound 0.8 µM) | relative viability (TGX 221 + AZD7762; first compound 2.53 µM) | relative viability (TGX 221 + AZD7762; first compound 8 µM)
NCI-H1734 | 0.642 | 0.608 | 0.618 | 0.595 | 0.432 | 0.469 | 0.493 | 0.501 | 0.545 | 0.432 | 0.809 | 0.747 | 0.784 | 0.698 | 0.765 | 0.526 | 0.464 | 0.499 | 0.609 | 0.496
NCI-H522 | 0.606 | 0.73 | 0.86 | 0.771 | 0.657 | 0.739 | 0.772 | 0.674 | 0.628 | 0.671 |  |  |  |  |  | 0.771 | 0.81 | 0.888 | 0.871 | 0.904
NCI-H1623 | 0.469 | 0.453 | 0.382 | 0.427 | 0.419 |  |  |  |  |  |  |  |  |  |  |  |  |  |  | 
NCI-H520 | 0.174 | 0.192 | 0.237 | 0.304 | 0.233 | 0.476 | 0.476 | 0.559 | 0.509 | 0.462 | 1.24 | 0.944 | 1.03 | 0.756 | 0.648 |  |  |  |  | 
LCLC-103H | 0.372 | 0.39 | 0.519 | 0.469 | 0.434 | 0.799 | 0.734 | 0.695 | 0.697 | 0.79 |  |  |  |  |  | 0.789 | 0.762 | 0.771 | 0.707 | 0.731
NCI-H2342 | 0.555 | 0.702 | 0.561 | 0.664 | 0.555 | 0.826 | 0.774 | 0.724 | 0.729 | 0.604 |  |  |  |  |  | 0.421 | 0.448 | 0.496 | 0.489 | 0.524
Calu-6 |  |  |  |  |  |  |  |  |  |  | 0.853 | 0.813 | 0.872 | 0.753 | 0.733 |  |  |  |  | 
A549 |  |  |  |  |  |  | 0.315 | 0.207 | 0.306 | 0.211 | 1.29 | 1.17 | 1.18 | 1.18 | 1.11 |  |  |  |  | 
NCI-H2023 | 0.32 | 0.441 | 0.404 | 0.382 | 0.317 | 0.242 | 0.247 | 0.197 | 0.222 | 0.196 | 0.987 | 0.965 | 0.988 | 0.925 | 0.758 |  |  |  |  | 
SK-LU-1 | 0.342 | 0.369 | 0.276 | 0.397 | 0.3 | 0.506 | 0.572 | 0.593 | 0.575 | 0.497 | 0.392 | 0.84 | 0.726 | 0.786 | 0.772 |  |  |  |  | 
SK-MES-1 | 0.711 | 0.666 | 0.562 | 0.67 | 0.419 | 0.382 | 0.408 | 0.383 | 0.404 | 0.376 | 1.17 | 1.05 | 1.13 | 1.05 | 0.996 |  |  |  |  | 
ABC-1 | 0.37 | 0.477 | 0.478 | 0.424 | 0.257 | 1.4 | 1.03 | 1.03 | 0.899 | 1.07 |  |  |  |  |  | 0.859 | 0.908 | 0.743 | 0.749 | 1.08
NCI-H1703 |  |  |  |  |  |  |  |  |  |  | 1.05 | 0.822 | 0.969 | 0.97 | 0.633 | 0.129 | 0.12 | 0.12 | 0.116 | 0.146
NCI-H1299 |  |  |  |  |  |  |  |  |  |  | 1.01 | 1.03 | 1.04 | 1.07 | 0.985 |  |  |  |  | 
COR-L 105 | 0.72 | 0.737 | 0.734 | 0.628 | 0.602 | 0.715 | 0.684 | 0.793 | 0.664 | 0.564 | 0.97 | 0.613 | 0.842 | 0.799 | 0.558 |  |  |  |  | 
NCI-H358 | 0.787 | 0.724 | 0.758 | 0.779 | 0.736 | 0.205 | 0.23 | 0.205 | 0.2 | 0.177 |  |  |  |  |  | 0.497 | 0.631 | 0.462 | 0.58 | 0.515
SW 1573 | 0.618 | 0.821 | 0.657 | 0.54 | 0.391 | 0.447 | 0.536 | 0.552 | 0.468 | 0.425 | 0.814 | 0.811 | 0.926 | 0.821 | 0.753 |  |  |  |  | 
EBC-1 |  |  |  |  |  |  |  |  |  |  | 0.43 | 0.408 | 0.428 | 0.277 | 0.258 |  |  |  |  | 
NCI-H1650 | 0.477 | 0.784 | 0.738 | 0.508 | 0.43 | 0.456 | 0.535 | 0.496 | 0.384 | 0.367 | 1.23 | 1.14 | 1.27 | 1.04 | 0.456 |  |  |  |  | 
NCI-H1648 | 0.312 |  | 0.224 | 0.27 | 0.311 |  | 0.537 | 0.493 | 0.478 | 0.458 |  |  |  |  |  |  | 0.784 | 0.793 | 0.628 | 0.672
CAL-12T | 0.589 | 1.14 | 0.591 | 0.59 | 0.431 |  |  |  |  |  | 1.06 | 1.2 | 1.36 | 1.23 | 1.07 | 0.637 | 0.656 | 0.542 | 0.577 | 0.666
SW 900 | 0.461 | 0.628 | 0.426 | 0.462 | 0.356 |  | 0.452 | 0.467 | 0.459 | 0.446 |  |  |  |  |  |  | 0.598 | 0.515 | 0.444 | 0.469
NCI-H2228 | 0.6 | 0.785 | 0.576 | 0.491 | 0.372 |  |  |  |  |  | 0.856 | 0.949 | 0.609 | 0.931 | 0.644 |  |  |  |  | 
IA-LM |  |  |  |  |  |  |  |  |  |  | 0.722 | 0.707 | 1.02 | 0.849 | 1.02 |  |  |  |  | 
NCI-H661 | 0.648 | 0.739 | 0.524 | 0.649 | 0.664 | 0.532 | 0.559 | 0.538 | 0.558 | 0.436 |  |  |  |  |  |  |  |  |  | 

— the supplement of paper PMC10307832
